This assay has as its target human TNIK (N-terminal segment, TNIK_N, residues 1-314) (Homo sapiens (Human), UniProt Q9UKE5). In words: TNIK kinase assay (mobility shift). To be noted: TNIK_N kinase activity, 25 μM ATP, 1 h at room temperature. In kind it is biochemical. The source says: Preparation of Recombinant Human TNIK (N-Terminal Segment):
A cDNA encoding the N-terminal segment (TNIK_N, residues 1-314) containing the kinase domain of human TNIK (NM_015028.1) was amplified from cDNA mixture synthesized from human tissue (Biochain) by PCR using the following primers.
The cDNA was subcloned into baculovirus transfer vector pFastBac_GSTb that includes protease cleavage site and glutathione S-transferase purification tag (GST-tag). The plasmid was purified and the insertion of the pFastBac_GSTb-TNIK_N was confirmed by DNA sequencing. Then E. coli DH10Bac competent cells were transformed with the plasmid to prepare the recombinant bacmid according to the instructions for the Bac-to-Bac™ baculovirus expression systems (Invitrogen). The Sf9 cells were transfected with the recombinant bacmid containing pFastBac_GSTb-TNIK_N using Cellfectin Reagent (Invitrogen) in SF-9001I serum free media (Invitrogen). The viral supernatant was collected from the medium 72 h after transfection. The virus was amplified three times by infecting actively growing Sf9 or Sf21 cells in Grace's insect media (Invitrogen) supplemented with 10% FCS and an antibiotic-antimycotic reagent (Invitrogen) for 72 h at 27° C. in T-flask or roller bottles. The titer of amplified TNIK_N virus was estimated at 2.36×10^8 pfu/ml by using BacPAK™ Baculovirus Rapid Titer kit (Clontech).
Log-phase Sf21 cells (2×10^6 cells/ml) in the Grace's insect media were infected with the recombinant baculovirus at MOI of 3.0 and incubated in roller bottles (250 ml media per bottle) for 72 h at 27° C., after which, the cells were collected by centrifugation, and the cell pellet washed with cold PBS and kept at −80° C. until purification. The following purification procedures were carried out at 4° C. The frozen cells were thawed on ice and lysed in lysis buffer (50 mM Tris-HCl, pH 7.5, 150 mM NaCl, 1% Nonidet P-40, 5 mM DTT, 0.5 mM EDTA, 0.5 mM EGTA) supplemented with 1 mM phenylmethansulfonylfluoride, 2 μg/ml leupeptin, 2 μg/ml aprotinin, 1 mM NaF, 100 μM sodium orthovanadate, and 1 μM cantharidin by sonication. The suspended lysate was cleared by centrifugation at 9000g for 20 min and the supernatant was incubated for 1 h with glutathione Sepharose beads (GE Healthcare). The beads were suspended in buffer-H (50 mM Tris-HCl, pH 7.5, 1 M NaCl, 1 mM DTT, 0.5 mM EDTA, 0.5 mM EGTA and 0.05% Brij35) and washed with buffer-H followed by buffer-L (50 mM Tris-HCl, pH 7.5, 150 mM NaCl, 1 mM DTT, 0.5 mM EDTA, 0.5 mM EGTA, 0.05% Brij35) in an Econo-pack column (BIO-RAD). The bound TNIK_N was eluted with elution buffer (50 mM Tris-HCl, pH 8.0, 150 mM NaCl, 1 mM DTT, 10% glycerol, 0.5 mM EDTA, 0.5 mM EGTA and 5 mM reduced glutathione). The eluted fractions were collected and determined the protein concentration by Bradford reagent (BIO-RAD). The TNIKN fractions were pooled and desalted using 10DG column (BIORAD) equilibrated with the storage buffer (50 mM Tris-HCl, pH 7.5, 150 mM NaCl, 1 mM DTT, 10% glycerol, 0.05% Brij35). The purified TNIKN was characterized by electrophoresis using 4-20% polyacrylamide gels and matrix-assisted laser desorption/ionization reflection time-of-flight (MALDI-TOF) mass spectrometry on a Voyager-DE RP MALDI/TOF (Applied Biosystems). TNIK_N was confirmed by the molecular weight and. MASCOT Peptide Mass Fingerprint.
The kinase assays were conducted in a 20 μl volume using 384-well plates (Greiner). The reaction mixture consists of compound or vehicle (1% DMSO), 0.08 ng/μl TNIK_N, 1 μM FITC-labeled substrate peptides, including E-aminocaproic acid and 7 amino acids (described as SEQ ID NO.3 in “Kinase assay of TEST EXAMPLE 1” of WO 2010/064111(P.31)), 20 mM Hepes, pH 7.5, 0.01% Triton X-100, 5 mM MgCl2, 25 μM ATP and 2 mM DTT. As blank, TNIK N was excluded from the reaction mixture of vehicle (1% DMSO). […]
human TNIK (N-terminal segment, TNIK_N, residues 1-314), sequence (Q9UKE5 1-314): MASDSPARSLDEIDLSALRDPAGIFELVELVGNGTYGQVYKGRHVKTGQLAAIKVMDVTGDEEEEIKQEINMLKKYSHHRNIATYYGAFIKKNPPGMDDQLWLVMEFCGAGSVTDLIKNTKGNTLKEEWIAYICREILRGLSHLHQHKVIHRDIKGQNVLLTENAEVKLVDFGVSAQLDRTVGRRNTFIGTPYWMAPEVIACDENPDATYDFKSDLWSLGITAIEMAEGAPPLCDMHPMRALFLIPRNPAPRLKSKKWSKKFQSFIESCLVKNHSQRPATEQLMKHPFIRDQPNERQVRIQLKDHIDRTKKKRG
In general, IC50 refers to the concentration that gives 50% inhibition. Regarding `COc1ccc2cc(Nc3nc(C(N)=O)c(NC(=O)c4ccc(Cn5ccnc5)cc4)s3)ccc2c1` [Example 248, 5-{4-[(1H-imidazol-1-yl)methyl]benzamido}-2-[(6-methoxynaphthalen-2-yl)amino]thiazole-4-carboxamide], the half-inhibitory concentration (IC50) came out at 6.1 nM.

Consider `NC(=O)c1nc(Nc2ccc3cc(CO)ccc3c2)sc1NC(=O)c1ccsc1` [Example 70, 2-{[6-(hydroxymethyl)naphthalen-2-yl]amino}-5-(thiophene-3-carboxamido)thiazole-4-carbox-amide], for which the IC50 stood at 5.5 nM.

On to `NC(=O)c1nc(Nc2cccc3ncccc23)sc1NC(=O)c1ccsc1` [Example 40, 2-(quinolin-5-ylamino)-5-(thiophene-3-carbox-amido)thiazole-4-carboxamide], for which the IC50 was 9.4 nM.

With `Cc1nnc(Cc2ccc(C(=O)Nc3sc(Nc4ccc5ccccc5c4)nc3C(N)=O)cc2)o1` [Example 257, 5-{4-[(5-methyl-1,3,4-oxadiazol-2-yl)methyl]benzamido}-2-(naphthalen-2-ylamino)thiazole-4-carboxamide], the IC50 worked out at 6.2 nM.

As to `NC(=O)c1nc(Nc2ccc3ccccc3c2)sc1NC(=O)C#CCCCn1ccnc1` [Example 234, 5-[6-(1H-imidazol-1-yl)hex-2-ynamido]-2-(naph-thalen-2-ylamino)thiazole-4-carboxamide], the IC50 turned out to be 9.7 nM.

Take `COc1ccc(C(=O)Nc2sc(Nc3ccc4ncccc4c3)nc2C(N)=O)cc1` [Example 4, 5-(4-methoxybenzamido)-2-(quinolin-6-ylamino) thiazole-4-carboxamide]: the IC50 stood at 21.5 nM.

Regarding `COc1ccc2cc(Nc3nc(C(N)=O)c(NC(=O)c4ccc(N)cc4)s3)ccc2c1` [Example 136, 5-(4-aminobenzamido)-2-[(6-methoxynaphthalen-2-yl)amino]thiazole-4-carboxamide], the IC50 amounted to 9.7 nM.

On to `CN(c1ccc2ncccc2c1)c1nc(C(N)=O)c(NC(=O)c2csc(CN3CCOCC3)c2)s1` [Example 51], for which the IC50 was determined as 5.7 nM.

With `CC(=O)Nc1ccc(C(=O)Nc2sc(Nc3cccc4ccccc34)nc2C(N)=O)cc1` [Example 1, 5-(4-acetamidobenzamido)-2-(naphthalen-1-ylamino)thiazole-4-carboxamide], the IC50 was 24.7 nM.

With `COc1cc(Nc2nc(C(N)=O)c(NC(=O)c3ccsc3)s2)cc2ccccc12` [Example 74, 2-[(4-methoxynaphthalen-2-yl)amino]-5-(thio-phene-3-carboxamido)thiazole-4-carboxamide], the IC50 is 51.3 nM.

As to `NC(=O)c1nc(Nc2ccc3ccccc3c2)sc1NC(=O)c1ccc(NCCO)c(N)c1` [Example 121, 5-{3-amino-4-[(2-hydroxyethyl)amino]benzamido}-2-(naphthalen-2-ylamino)thiazole-4-carbox-amide], the IC50 is 24.4 nM.

Take `NC(=O)c1nc(Nc2ccc3ccccc3c2)sc1NC(=O)C#CCCO` [Example 225, 5-(5-hydroxypent-2-ynamido)-2-(naphthalen-2-ylamino)thiazole-4-carboxamide]: the IC50 came to 4 nM.

Regarding `NC(=O)c1nc(Nc2ccc3ccccc3c2)sc1NC(=O)C#CCO` [Example 218, 5-(4-hydroxybut-2-ynamido)-2-(naphthalen-2-yl-amino)thiazole-4-carboxamide], the IC50 worked out at 4.5 nM.

`CN1CCN(C/C=C/C(=O)Nc2sc(Nc3ccc4ccccc4c3)nc2C(N)=O)CC1` [Example 174, (E)-5-(4-(4-methylpiperazin-1-yl)but-2-enamido)-2-(naphthalen-2-ylamino)thiazole-4-carboxamide]: the IC50 amounted to 16 nM.

For the molecule `CN1CCN(Cc2cc(C(=O)Nc3sc(Nc4cccc5ncccc45)nc3C(N)=O)cs2)CC1` [Example 56, 5-{5-[(4-methylpiperazin-1-yl)methyl]thiophene-3-carboxamido}-2-(quinolin-5-ylamino)thiazole-4-carboxamide], the IC50 came to 8.2 nM.

Values taken from patent US9102637B2, “Bicyclic thiazole compounds” (CARNA BIOSCIENCES INC., priority 2013, dated 2015).
